Reference: patent US7560468B2, “Substituted 1,4,8-triazaspiro[4,5]decan-2-one compounds” (Gruenenthal GmbH, priority 2004, dated 2009)

Columns and labels:
[1] = test system: batrachotoxin (BTX) binding site of the sodium channel; assay: Affinity to the batrachotoxin (BTX) binding site of the sodium channel; details: rat cerebrocortex synaptosomes, [3H]-batrachotoxinin A20 α-benzoate 10 nM; test concentration not given
[2] = biological target: T1, 5-HT transporter (Rattus norvegicus, UniProt P31652); assay: Inhibition of 5-HT uptake in synaptosomes; assay type: biochemical; details: rat, 1 μM
T1 construct: from tissue; host or cells: rat brain synaptosomes (marrow/medulla and pons), P2 fraction
T1 sequence (P31652 whole entry): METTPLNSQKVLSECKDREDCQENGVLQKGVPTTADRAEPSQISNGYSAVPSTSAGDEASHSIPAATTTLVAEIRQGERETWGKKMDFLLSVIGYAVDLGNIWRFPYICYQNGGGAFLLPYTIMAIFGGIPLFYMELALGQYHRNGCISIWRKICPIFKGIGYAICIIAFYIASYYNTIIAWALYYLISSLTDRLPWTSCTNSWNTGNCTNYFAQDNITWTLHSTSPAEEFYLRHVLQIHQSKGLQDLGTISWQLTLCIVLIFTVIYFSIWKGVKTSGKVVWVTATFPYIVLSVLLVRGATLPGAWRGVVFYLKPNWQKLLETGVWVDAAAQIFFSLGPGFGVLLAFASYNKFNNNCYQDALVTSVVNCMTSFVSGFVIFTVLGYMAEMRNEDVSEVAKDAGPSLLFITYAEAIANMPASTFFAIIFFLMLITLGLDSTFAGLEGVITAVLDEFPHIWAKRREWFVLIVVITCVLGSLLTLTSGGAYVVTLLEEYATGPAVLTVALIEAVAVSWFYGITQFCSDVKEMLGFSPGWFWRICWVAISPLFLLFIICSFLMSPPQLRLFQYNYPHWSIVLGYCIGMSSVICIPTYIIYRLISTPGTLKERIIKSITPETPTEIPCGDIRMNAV

[3] = test system: NA transporter; assay: Inhibition of noradrenalin uptake in synaptosomes; assay type: biochemical
[4] = biological target: human CB2 receptor (Homo sapiens, UniProt P34972); assay: Affinity to the cannabinoid receptor CB2, displacement of [3H]-CP 55,940; details: for Inhibition CB2 10 μM, % inhibition: membranes of HEK 293EBNA cells with human CB2 receptor
Chain of human CB2 receptor (P34972 whole entry): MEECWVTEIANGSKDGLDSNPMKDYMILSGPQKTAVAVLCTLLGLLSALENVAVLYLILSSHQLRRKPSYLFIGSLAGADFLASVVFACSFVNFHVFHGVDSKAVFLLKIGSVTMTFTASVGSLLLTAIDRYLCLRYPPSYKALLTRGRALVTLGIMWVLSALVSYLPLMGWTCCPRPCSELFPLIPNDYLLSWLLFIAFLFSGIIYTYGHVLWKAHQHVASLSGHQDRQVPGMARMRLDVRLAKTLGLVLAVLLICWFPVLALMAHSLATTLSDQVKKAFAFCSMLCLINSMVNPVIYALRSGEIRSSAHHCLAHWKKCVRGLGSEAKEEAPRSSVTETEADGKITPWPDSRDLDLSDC
Protocol: The radioligand used was tritium-labeled 5-(1,1-dimethylheptyl)-2-(5-hydroxypropyl)cyclohexyl)-1-alpha,2-beta,5-alpha)-phenol (^[3]H—CP 55,940 with 103.4 of Ci/mmol, 1 m Ci/mL). Determination was carried out in a test buffer comprising 50 mM of Tris-HCl, 2.5 mm of EDTA, 5 mm of MgCl2 and 1.0 mg/mL of fatty acid-free BSA. The test substances were in each case dissolved in DMSO.
The affinity of the compounds of the invention to the CB2 receptor is determined by their ability to displace ^[3]H—CP from 55,940 of CB2 receptors in membranes of HEK 293 EBNA cells. For this purpose 8 μg of membranes (20 mL of a solution of membranes in a concentration of 400 g/ml) are incubated in wells of a microtiter plate with a 0.33 nM of solution of [3]H-CP 55,949 (120 of Ci/mmol) in a total volume of test buffer of 200 μL for 90 minutes at 30° C.
Subsequently, either the test substances or WIN 55,212-2 for determination the non-specific binding are placed, dissolved in each case in dimethyl sulphoxide, in the wells so that in each case a concentration of the relevant substances of 10 μM is obtained.
Incubation is continued for a further 40 minutes at 30° C. dc. […] The filters are washed nine times with 0.5 mL of ice-cold washing buffer (50 nM of Tris-HCl, 5 mM of MgCl2, 2.5 mm of EDTA, 2% of BSA, pH 7.4), air-dried, placed in scintillation liquid, and the radioactivity is determined with the aid of a scintillation counter.
The percentage displacement of the radio-active ligand ^[3]H—CP 55,940 from its binding to the CB2 receptor is indicated as percentage inhibition of the specific binding. In order to determine Ki the IC50 inhibition concentrations are calculated based on of the percentage displacement achieved by the compounds of the general formula I to be tested at various concentrations causing a 50 percent displacement of the radioactive ligands.

Row | SMILES | BTX Inhibition [1] | Uptake_5-HT, rat, 1 μM, % inhibition [2] | Uptake (NA), rat, 10 μM, % inhibition [3] | Inhibition CB2 10 μM, % inhibition [4] | inhibition at 10 µM ([4]; read-out: Inhibition CB2 10 μM, % inhibition)
1 | CCOC(=O)CN1C(=O)C(Cc2ccccc2)NC12CCN(S(=O)(=O)c1ccc(OC)cc1)CC2 (centres unmarked) [Example 50, Ethyl[3-benzyl-8-(4-methoxy-benzolsulfonyl)-2-oxo-1,4,8-triazaspiro[4,5]dec-1-yl]-acetate] | 32 | 79% | 38% | 52% | 
2 | C=CCN1C(=O)C(CCSC)NC12CCN(S(=O)(=O)c1ccccc1S(C)(=O)=O)CC2 (centres unmarked) [Example 54, 1-Allyl-8-(2-methansulfonylbenzolsulfonyl)-3-(2-methylsulfanylethyl)-1,4,8-triazaspiro[4,5]decan-2-one] |  | 30% | 46% | 56% | 
3 | O=C1C(Cc2ccccc2)NC2(CCN(C(=S)NCC3CCCCC3)CC2)N1Cc1ccccc1F (centres unmarked) [Example 171, 3-Benzyl-1-(2-fluorobenzyl)-2-oxo-1,4,8-triazaspiro[4,5]decan-8-thiocarboxylic acid cyclohexylmethylamide] | 86 |  | 34% |  | 41%
4 | O=C1C(Cc2ccccc2)NC2(CCN(C(=S)Nc3c(Cl)cccc3Cl)CC2)N1Cc1ccccc1F (centres unmarked) [Example 187, 3-Benzyl-1-(2-fluorobenzyl)-2-oxo-1,4,8-triazaspiro[4,5]decan-8-thiocarboxylic acid (2,6-dichlorobenzol)amide] | 86 | 54% | 39% | 84% | 
5 | CCOc1ccc(NC(=O)N2CCC3(CC2)NC(CCSC)C(=O)N3Cc2ccc3ccccc3c2)cc1 (centres unmarked) [Example 231, 3-(2-Methylsulfanylethyl)-1-naphthalin-2-ylmethyl-2-oxo-1,4,8-triazaspiro[4,5]decan-8-carboxylic acid (4-ethoxy-benzol)amide] | 79 | 59% |  | 49% | 
